Test results as given in patent publication US7608249B2, “Enhanced substrate imaging by reversible binding to a paramagnetic complex” (Bracco Imaging S.p.A., priority 2001, dated 2009).

Experiments:
[1] = Affinity of paramagnetic complex towards substrate by PRE method; type: binding
Excerpt: (§1) Since the relaxivity of the two paramagnetic species involved in the equilibrium, that bound to the substrate molecule and that unbound, are different, the well-established Proton Relaxation Enhancement (PRE) method (Aime S, Fasano M, Terreno E, Botta M in The Chemistry of Contrast Agents in Medical Magnetic Resonance Imaging, Merbach A E, Tóth E (eds), Wiley & Sons: Chichester, 2001, 203-209) may be conveniently used for estimating the affinity of the paramagnetic complex towards the substrate molecule.
(§2) The KA values obtained for the adducts disclosed in the following are measured according to this PRE method.

[2] = Affinity of paramagnetic complex towards substrate by Proton Relaxation Enhancement (PRE) method; type: binding; conditions: Lactate; pH 7 and 25° C.
Excerpt: as §1, §2
By adding lactate to an aqueous solution of GdDO3A the following equilibrium takes place: GdDO3A(H2O)2+Lactate ? GdDO3A(Lactate)+2H2O
Since the relaxivity of the two Gd(III) species involved in the equilibrium are different (higher for GdDO3A(H2O)2), the well-consolidated Proton Relaxation Enhancement (PRE) method (Aime S, Fasano M, Terreno E, Botta M in The Chemistry of Contrast Agents in Medical Magnetic Resonance Imaging, Merbach A E, Tóth E (eds), Wiley & Sons: Chichester, 2001, 203-209) may be conveniently used for estimating the affinity of the GdDO3A complex towards Lactate.

binding strength ([1]; inorganic phosphate, pH 7.4 and 25° C.) [M⁻¹]	Compound	KA ([1]; aspartate, 298 K and pH 7) [M⁻¹]	KA ([1]; oxalate, 298K and pH 7) [M⁻¹]	KA ([1]; citrate, pH 7 and 25° C.) [M⁻¹]	KA [2] [M⁻¹]
–	10-[(3-carboxyphenyl)methyl]-1,4,7,10-tetraazaciclododecane-1,4,7-triacetic acid gadolinium complex [Gd-3]	120	> 50000	–	–
50	O=C([O-])CN1CCNCCN(CC(=O)[O-])CCN(CC(=O)[O-])CC1.[Gd+3] [GdDO3A]	–	–	40	150
